What was measured:
intracellular Hsp90 = settings: SKBR3 cells, pre-treated 1–10 µM for 3 h, washed, then 11 0.5 µM
[1] = tested on: Hsp90-client proteins HER2, cRaf, Akt and pAkt; assay: Western blotting of Hsp90 client proteins
Hsp90 = settings: read-out: reported IC50; cited from earlier work
SKBR3 cells = assay: Cell viability assay (WST-8)

CC(C)NCCCn1c(Sc2cc3c(cc2I)OCO3)nc2c(N)ncnc21 [PU-H71]
blocking of fluorescent labelling of Hsp90 by 11 after washout (intracellular Hsp90): failed to block the labelling reaction | western blotting bands of Hsp90-client proteins relative to vehicle ([1]; SKBR3, 1 μM, 24 h without washing): dramatically decreased | Hsp90-client protein levels after washout ([1]; SKBR3, 3 h treatment, washing, further 21 h): did not significantly affect the band intensities | IC50 (Hsp90): […] | cytotoxicity / growth inhibitory effect after washout (SKBR3 cells; SKBR3, 3 h treatment, washing, further 69 h): almost abolished the cytotoxicity | cytotoxicity (SKBR3 cells; SKBR3, long-term incubation for 72 h): remarkable cytotoxicity
